For one experiment, the target named is PERK enzyme (Homo sapiens (Human), UniProt Q9NZJ5). In words: Biochemical assay for PERK (coupled pyruvate kinase/lactate dehydrogenase). As to conditions: 1 mM ATP. The procedure:
Activity of PERK kinase was determined spectroscopically using a coupled pyruvate kinase/lactate dehydrogenase assay that continuously monitors the ATP hydrolysis-dependent oxidation of NADH (e.g., Schindler et al. Science (2000) 289: 1938-1942). Assays were conducted in 384-well plates ([…] final volume) using 10 nM PERK (from Beryllium), 0.25 mg/mL Myelin Basic Protein substrate, 1.5 units pyruvate kinase, 2.1 units lactate dehydrogenase, 1 mM phosphoenol pyruvate, 0.28 mM NADH and 1 mM ATP in assay buffer (100 mM Tris, pH 7.5, 15 mM MgCl2, 0.5 mM DTT, 0.004% (w/v) BSA, and 0.004% Triton X-100). Inhibition of PERK was measured by adding serial diluted test compound (final assay concentration of 1% DMSO). A decrease in absorption at 340 nm was monitored continuously for 6 hours at 30° C. on a multi-mode microplate reader (BioTek). The reaction rate was calculated using the 2-3 h time frame. The reaction rate at each concentration of compound was converted to percent inhibition using controls (i.e., reaction with no test compound and reaction with a known inhibitor) and IC50 values were calculated using software routines in Prism (GraphPad software).

Experiment [1] deals with ATF4 in HCT116 colorectal cancer cells. Briefly: HCT116 amino acid starved (-AA) ATF4 Western blot. The experiment is classed as cell-based. As to conditions: Homo sapiens, HCT-116, 4 h. The procedure: (§1) HCT116 colorectal cancer cells (catalog #CCL-247) were obtained from the American Type Culture Collect (ATTC, Manassas, VA). Briefly, cells were grown in RPMI 1640 supplemented with 10% heat inactivated fetal bovine serum (Invitrogen, Carlsbad, CA) and 1% Penicillin/Streptomycin/L-Glutamine at 37° C., 5% CO2, and 95% humidity. Cells were expanded until reaching 70-95% confluency at which point they were subcultured or harvested for assay use. Cells were seeded in 12-well culture plate at five hundred thousand cells per well in 1 mL complete growth medium and incubated overnight at 37° C., 5% CO2, and 95% humidity. The next day each well was replaced with 1 mL Earle's Balanced Salt Solution (EBSS, Invitrogen, Carlsbad, CA) supplemented with 10% Dialyzed Fetal Bovine Serum, 5.5 mM Glucose, 1% Penicillin/Streptomycin and 1% Vitamin solution (thermo #11120052). A serial dilution of test compound was dispensed into well. Plates were incubated for 4 h at 37° C., 5% CO2, and 95% humidity. […] Western blot was performed on each lysate to quantify phospho-GCN2 (Thr899), total GCN2, ATF4 and beta-Actin. […] Data were analyzed using GraphPad Prism software (GraphPad, San Diego, CA) to calculate IC50 values.
Background: A western blot detects proteins with antibodies after separation by electrophoresis.

Experiment [2] has as its system phospho-GCN2 (Thr899) in HCT116 colorectal cancer cells. Briefly: HCT116 amino acid starved (-AA) phospho-GCN2 Western blot. In kind it is cell-based. The note with it: Homo sapiens, HCT-116, 4 h, read-out: HCT116 -AA pGCN2 Western Blot. The procedure: as §1
Experiment [3] concerns the target Recombinant GCN2 (EIF2AK4) (Homo sapiens (Human), UniProt Q9P2K8). Briefly: Recombinant GCN2 activation assay. In kind it is biochemical. The note with it: FIG. 9A. On the procedure: Recombinant GCN2 (EIF2AK4) (Carna Biosciences, Japan) was dephosphorylated by incubating with 16,000 units of lambda phosphatase (New England Biolabs, Ipswich, MA) for 3 h at 30° C. in 1×phosphatase reaction buffer. To measure Compound 2-mediated GCN2 modulation, 12.5 nM dephosphorylated GCN2 diluted in Kinase buffer (Invitrogen, Carlsbad, CA) was incubated with Compound 2 titer for 30 min at RT. Following incubation, 130 nM substrate (GFP-eIF2α) (ThermoFisher Scientific, Waltham, MA) and 0.05 mM ATP was added to the mixture and incubated for 60 min at RT. Reaction was stopped by the addition of 10 mM EDTA and phosphorylated eiF2a substrate was detected using 2 nM LanthaScreen Tb-anti-peIF2α (pSer52) antibody (ThermoFisher Scientific, Waltham, MA) then incubated in the dark. After a 60 min incubation at room temperature, TR-FRET was monitored using an excitation wavelength of 340 nm and emission wavelengths of 490 nm and 520 nm.

In a further experiment the target is GCN2 kinase (Homo sapiens (Human), UniProt Q9P2K8). Briefly: Biochemical assay for GCN2 (TR-FRET kinase activity). As to conditions: 1 mM ATP. The procedure:
Activity of GCN2 kinase was determined using a TR-FRET kinase activity assay (e.g. Riddle et al. Analytical Biochemistry (2006) 356(1) 108-116). Assays were conducted in 384-well plates (13 μL assay volume) using 2 nM GCN2 (Carna Biosciences), 130 nM GFP-EIf2α (Invitrogen), 0.2 mg/mL E. coli tRNA (sigma) and 1 mM ATP in kinase buffer (Invitrogen). Inhibition of GCN2 was measured by adding serial diluted test compound (final assay concentration of 0.5% DMSO) followed by a 3-hour incubation. Tb-peIF2α (pSer52) antibody (Invitrogen) (2 nM final assay concentration) in kinase buffer containing EDTA (final assay concentration of 20 mM) was added. After a 60 min incubation at room temperature, TR-FRET was monitored using an excitation wavelength of 340 nm and emission wavelengths of 490 nm and 520 nm. The emission ratio (520/490) at each compound concentration of was converted to percent inhibition using controls (i.e., reaction with no test compound and reaction with a known inhibitor) and IC50 values were calculated by fitting a four-parameter sigmoidal curve to the data using Prism (GraphPad software).

Sequence of Recombinant GCN2 (EIF2AK4) (Q9P2K8 whole entry): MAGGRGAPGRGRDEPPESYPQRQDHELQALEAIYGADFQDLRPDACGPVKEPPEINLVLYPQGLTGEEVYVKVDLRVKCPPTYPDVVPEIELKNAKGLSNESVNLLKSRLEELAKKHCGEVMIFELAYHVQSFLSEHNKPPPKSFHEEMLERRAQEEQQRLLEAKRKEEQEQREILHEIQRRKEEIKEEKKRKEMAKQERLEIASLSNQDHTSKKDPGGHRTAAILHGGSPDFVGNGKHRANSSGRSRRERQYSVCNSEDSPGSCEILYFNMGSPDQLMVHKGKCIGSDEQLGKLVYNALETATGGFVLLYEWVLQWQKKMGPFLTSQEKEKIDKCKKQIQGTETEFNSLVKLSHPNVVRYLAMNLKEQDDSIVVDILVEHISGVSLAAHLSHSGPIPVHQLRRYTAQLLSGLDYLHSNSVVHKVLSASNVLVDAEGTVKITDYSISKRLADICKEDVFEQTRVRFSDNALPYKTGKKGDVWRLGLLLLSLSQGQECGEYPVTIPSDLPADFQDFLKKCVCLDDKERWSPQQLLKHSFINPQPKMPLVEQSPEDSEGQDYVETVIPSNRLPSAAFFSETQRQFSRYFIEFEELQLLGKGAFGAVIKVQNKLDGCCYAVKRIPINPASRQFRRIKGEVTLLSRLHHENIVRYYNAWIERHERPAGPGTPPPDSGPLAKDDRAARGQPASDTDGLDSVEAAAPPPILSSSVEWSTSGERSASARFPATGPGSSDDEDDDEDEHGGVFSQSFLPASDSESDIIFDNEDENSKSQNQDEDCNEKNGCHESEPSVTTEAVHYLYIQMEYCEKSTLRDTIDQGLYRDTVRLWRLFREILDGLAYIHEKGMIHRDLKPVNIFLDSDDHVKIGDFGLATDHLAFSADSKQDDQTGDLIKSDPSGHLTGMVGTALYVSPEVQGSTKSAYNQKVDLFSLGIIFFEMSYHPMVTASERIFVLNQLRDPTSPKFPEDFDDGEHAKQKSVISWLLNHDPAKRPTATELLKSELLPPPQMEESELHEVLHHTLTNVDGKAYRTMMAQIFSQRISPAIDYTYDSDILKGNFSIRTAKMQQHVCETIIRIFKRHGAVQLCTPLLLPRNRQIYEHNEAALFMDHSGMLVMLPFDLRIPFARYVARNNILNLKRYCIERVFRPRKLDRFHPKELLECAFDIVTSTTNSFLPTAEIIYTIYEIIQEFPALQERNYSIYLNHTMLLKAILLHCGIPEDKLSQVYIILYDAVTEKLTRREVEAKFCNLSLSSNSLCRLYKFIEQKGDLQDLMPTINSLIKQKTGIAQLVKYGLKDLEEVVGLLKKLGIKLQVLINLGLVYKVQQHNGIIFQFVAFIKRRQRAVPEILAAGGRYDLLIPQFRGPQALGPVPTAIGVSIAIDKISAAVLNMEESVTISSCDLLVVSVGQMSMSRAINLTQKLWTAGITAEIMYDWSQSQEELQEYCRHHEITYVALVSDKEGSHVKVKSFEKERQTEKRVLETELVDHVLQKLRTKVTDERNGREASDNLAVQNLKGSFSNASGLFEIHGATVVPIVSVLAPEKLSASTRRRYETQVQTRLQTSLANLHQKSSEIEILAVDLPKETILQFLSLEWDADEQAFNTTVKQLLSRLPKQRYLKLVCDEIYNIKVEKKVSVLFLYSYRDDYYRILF
Sequence of GCN2 kinase (Q9P2K8 whole entry): as above
Sequence of PERK enzyme (Q9NZJ5 other isoform, or with tags, fused parts or gaps): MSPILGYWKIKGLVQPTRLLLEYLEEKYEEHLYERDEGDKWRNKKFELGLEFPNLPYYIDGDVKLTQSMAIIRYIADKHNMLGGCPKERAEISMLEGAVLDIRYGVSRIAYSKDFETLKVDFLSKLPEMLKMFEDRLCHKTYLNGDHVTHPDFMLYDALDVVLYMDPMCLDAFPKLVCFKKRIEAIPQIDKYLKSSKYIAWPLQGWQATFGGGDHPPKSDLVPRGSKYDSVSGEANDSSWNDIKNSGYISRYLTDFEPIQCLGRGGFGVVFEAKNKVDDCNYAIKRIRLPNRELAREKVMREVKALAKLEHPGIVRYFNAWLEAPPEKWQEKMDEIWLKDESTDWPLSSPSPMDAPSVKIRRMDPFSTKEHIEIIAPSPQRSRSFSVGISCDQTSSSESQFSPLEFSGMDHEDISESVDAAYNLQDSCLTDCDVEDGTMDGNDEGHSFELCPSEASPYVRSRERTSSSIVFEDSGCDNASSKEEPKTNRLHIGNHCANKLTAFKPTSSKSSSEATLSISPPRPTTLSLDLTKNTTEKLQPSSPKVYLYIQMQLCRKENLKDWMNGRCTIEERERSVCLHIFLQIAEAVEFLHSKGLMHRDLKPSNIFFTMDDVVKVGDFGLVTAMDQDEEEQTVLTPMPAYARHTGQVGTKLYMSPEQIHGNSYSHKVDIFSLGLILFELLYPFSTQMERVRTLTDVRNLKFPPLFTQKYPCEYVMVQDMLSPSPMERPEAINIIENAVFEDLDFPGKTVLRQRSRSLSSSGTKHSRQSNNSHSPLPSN

As for `Cn1cc(-c2cccc(NS(=O)(=O)c3cc(Cl)cc(CO)c3Cl)c2F)c2c(N)ncnc21` [Example 2, N-(3-(4-amino-7-methyl-7H-pyrrolo[2,3-d]pyrimidin-5-yl)-2-fluorophenyl)-2,5-dichloro-3-(hydroxymethyl)benzenesulfonamide], the IC50 (against PERK enzyme; in experiment [1]; in experiment [2]; on GCN2 kinase) was at most 0.1 µM throughout. The “concentrations at which GCN2 enzyme is activated” value in experiment [3] was in the range of 0.05 to 3 nM. The “concentrations at which recombinant GCN2 activity is inhibited” value in experiment [3] is recorded as “above 10 nM”. Besides, the “activation of GCN2 enzyme, % of control” value in experiment [3] (at 0.05-3 nM) is recorded as “up to 250 % of control”.

The record behind these values is patent publication US20230382915A1, “GCN2 AND PERK KINASE INHIBITORS AND METHODS OF USE THEREOF” (Deciphera Pharmaceuticals, LLC, priority 2021, published 2023).
